# Results reported in patent US6906092B2, “Method of inhibiting matrix metalloproteinases” (Warner-Lambert Company, priority 1996, dated 2005).
# Read-outs that look alike come from different tables or passages of the source.
# How the values were obtained:
# [1] = biological target: T1, MMP01 (fibroblast collagenase) (Homo sapiens, UniProt P03956); assay: Thiopeptolide assay, MMP01; assay type: biochemical; details: thiopeptolide substrate
# T1 construct: purchased Washington University School of Medicine, St. Louis, Mo
# T1 sequence (P03956 100-469): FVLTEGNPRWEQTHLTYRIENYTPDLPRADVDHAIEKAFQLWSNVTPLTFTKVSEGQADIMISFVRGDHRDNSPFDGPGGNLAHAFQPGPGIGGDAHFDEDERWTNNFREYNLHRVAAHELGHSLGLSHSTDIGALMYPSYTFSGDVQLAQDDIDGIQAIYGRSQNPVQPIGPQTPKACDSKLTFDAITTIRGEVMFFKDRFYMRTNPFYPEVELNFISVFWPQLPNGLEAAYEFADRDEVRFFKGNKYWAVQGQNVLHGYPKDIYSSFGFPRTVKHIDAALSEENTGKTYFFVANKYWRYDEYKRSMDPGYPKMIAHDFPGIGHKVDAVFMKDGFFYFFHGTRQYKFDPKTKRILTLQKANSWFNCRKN
# Protocol: (§1) IC50 values were determined using a thiopeptolide substrate, Ac-Pro-Leu-Gly-thioester-Leu-Leu-Gly-OEt (Ye Q.-Z., Johnson L. L., Hupe D. J., and Baragi V., “Purification and Characterization of the Human Stromelysin Catalytic Domain Expressed in Escherichia coli,” Biochemistry, 1992;31:11231-11235). MMP01, MMP07, MMP09, and MMP13 activity was assayed in a method similar to MMP02 and MMP03 (SCD and GCD). MMP01 and MMP09 can be obtained from Washington University School of Medicine, St. Louis, Mo. MMP07 can be obtained in accordance with the known procedure set forth by Ye Q-Z, Johnson L. L., and Baragi V., “Gene Syntheses and Expression in E. coli for PUMP, a Human Matrix Metalloproteinase” Biochem. and Biophys. Res. Comm., 1992;186:143-149. MMP13 can be obtained in accordance with the known procedure set forth by Freije J. M. P., et al., “Molecular Cloning and Expression of Collegenase-3, a Novel Human Matrix Metalloproteinase Produced by Breast Carcinomas” J. Bio. Chem., 1994;269:16766-16773.
# (§2) Hydrolysis of the thiopeptolide substrate Ac-Pro-Leu-Gly-thioester-Leu-Leu-Gly-OEt (Bachem) is used as the primary screen to determine IC50 values for MMP inhibitors. A 100 μL reaction contains 1 mM 5,5′-dithiobis(2-nitrobenzoic acid) (DTNB), 100 μM substrate, 0.1% Brij, enzyme, and inhibitor in the appropriate reaction buffer. Activated full-length enzymes are assayed at 5 nM, Stromelysin Catalytic Domain (SCD) at 10 nM, and Gelatinase A Catalytic Domain (GaCD) at 1 nM. Inhibitors are screened from 100 μM to 1 nM. Full-length enzymes are assayed in 50 mM HEPES, 10 mM CaCl2, pH 7.0; SCD in 50 mM MES, 10 mM CaCl2, pH 6.0; and GaCD in 50 mM MOPS, 10 mM CaCl2, 10 μM ZnCl2, pH 7.0.
# [2] = biological target: MMP02 (GCD, recombinant gelatinase A catalytic domain) (Homo sapiens, UniProt P08253); assay: Thiopeptolide assay, gelatinase A catalytic domain (GCD); assay type: biochemical; details: thiopeptolide substrate
# Protocol: as §1, §2
# [3] = biological target: T2, MMP03 (SCD, stromelysin-1 catalytic domain) (Homo sapiens, UniProt P08254); assay: Thiopeptolide assay, stromelysin-1 catalytic domain (SCD); assay type: biochemical; details: thiopeptolide substrate
# T2 construct: SCD (stromelysin-1 catalytic domain); made in house; host or cells: Escherichia coli
# Protocol: as §1, §2
# [4] = biological target: T3, stromelysin catalytic domain (SCD) (Homo sapiens, UniProt P08254); assay: Soluble proteoglycan assay (stromelysin natural substrate assay) SCD (PG); assay type: biochemical; details: solubilized proteoglycan substrate
# T3 construct: SCD (stromelysin-1 catalytic domain); made in house; host or cells: Escherichia coli
# Protocol: Soluble Proteoglycan Assay (Stromelysin Natural Substrate Assay) SCD (PG)
# Solubilized proteoglycan substrate is prepared from bovine cartilage powder (Sigma) using the method described by Nagase and Woessner in Anal. Biochem., 1980;107:385-392. A 100 μL reaction contains 10 μg/mL proteoglycan, enzyme, and inhibitor in 50 mM MES, 10 mM CaCl2, pH 6.0. Activated full-length stromelysin or stromelysin catalytic domain (SCD) is assayed at 100 nM. Inhibitors are screened from 100 μM to 1 nM. The reaction is incubated at 37° C. for 3 hours then stopped with the addition of 1,10-phenanthroline at a final concentration of 1 mM. Reaction products are separated from undigested substrate using ultrafree-MC polysulfone microcons with a 300,000 molecular weight cut-off membrane (Millipore) and quantified using a modified […] (DMB) assay described by Farndale, Sayers, and Barrett in Connective Tissue Research, 1982;9:247-248. Absorbance is measured at 518 nm using 32 μg/mL DMB in a 1 mL reaction. The standard curve is constructed from 0 to 100 μg shark cartilage chondroitin sulfate C (Sigma).
# [5] = biological target: gelatinase A (Homo sapiens, UniProt P08253); assay: Gelatin assay (gelatinase natural substrate assay) (Gel); assay type: biochemical
# Protocol: Gelatin Assay (Gelatinase Natural Substrate Assay) (Gel)
# Rat tail Type I collagen (Sigma) is denatured by heating at 95° C. for 20 minutes to prepare the gelatin substrate. A 50 μL reaction contains 1.12 mg/mL substrate, enzyme, inhibitor, and 80 μg/mL soy bean trypsin inhibitor as an inert internal standard in 50 mM MOPS, 10 mM CaCl2, 10 μM ZnCl2, pH 7.0. Activated full-length gelatinase A is assayed at 1 nM and gelatinase A catalytic domain (GaCD) at 10 nM. Inhibitors are screened from 100 μM to 1 nM. The reactions are incubated at 37° C. for 30 minutes then stopped with 50 μL at 2× Tricine gel loading buffer (Novex). Reaction products are separated from undigested substrate by electrophoresis on Tricine-SDS 10-20% polyacrylamide gradient gels (Novex). Protein bands are stained with Coomassie Brilliant Blue R and quantified using a Bio Image densitometer (Millipore). IC50 values are calculated from the disappearance of substrate using the sum of the top three bands of each reaction after normalization with the internal standard.
# [6] = MMP inhibitor bioassay (inhibitor plasma level after gavage); assay type: in vivo, rat; details: 50 mg/kg by gavage
# Protocol: Animals are dosed by gavage with either vehicle or compound at 2, 10, or 50 mg/kg. Blood samples are collected from 3 to 4 animals from each dosing group at 1, 2, 4, 6, and 24 hour postdose, centrifuged, and the plasma immediately frozen at −20° C. Plasma protein is precipitated with an equal volume of acetonitrile and separated by centrifugation at room temperature. The supernate is evaporated to dryness and reconstituted to the original plasma volume with 50 mM Tris, pH 7.6. Ten-fold serial dilutions of the reconstituted plasma samples are prepared in 50 mM Tris, pH 7.6 for dose response assays using the appropriate thiopeptolide assay. […] All control samples are subjected to acetonitrile precipitation and analyzed with the thiopeptolide assay.
# [7] = biological target: T4, MMP07 (matrilysin) (Homo sapiens, UniProt P09237); assay: Thiopeptolide assay, MMP07; assay type: biochemical; details: thiopeptolide substrate
# T4 construct: made in house; host or cells: E. coli
# T4 sequence (P09237 95-267): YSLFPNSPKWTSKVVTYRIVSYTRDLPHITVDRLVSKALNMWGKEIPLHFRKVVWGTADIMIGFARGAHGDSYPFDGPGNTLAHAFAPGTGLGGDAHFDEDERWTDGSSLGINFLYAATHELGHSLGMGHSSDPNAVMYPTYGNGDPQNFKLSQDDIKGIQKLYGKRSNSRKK
# Protocol: as §1, §2
# [8] = biological target: T5, MMP13 (collagenase-3) (Homo sapiens, UniProt P45452); assay: Thiopeptolide assay, MMP13; assay type: biochemical; details: thiopeptolide substrate
# T5 construct: made in house
# Protocol: as §1, §2
# [9] = catalytic domain, read-out: (GCD) MMP02 IC50
# [10] = catalytic domain, read-out: (SCD) MMP03 IC50
# MMP02 (GCD, recombinant gelatinase A catalytic domain), sequence (P08253 110-221 limits assumed): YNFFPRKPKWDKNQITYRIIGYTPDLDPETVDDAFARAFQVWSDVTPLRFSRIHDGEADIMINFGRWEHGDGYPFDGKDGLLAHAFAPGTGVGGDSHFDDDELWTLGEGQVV
# MMP02 (GCD, recombinant gelatinase A catalytic domain), sequence (P08253 397-465 limits assumed): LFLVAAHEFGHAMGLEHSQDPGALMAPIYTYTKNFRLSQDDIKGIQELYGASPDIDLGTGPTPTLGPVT
# T2 sequence (P08254 100-272 limits assumed): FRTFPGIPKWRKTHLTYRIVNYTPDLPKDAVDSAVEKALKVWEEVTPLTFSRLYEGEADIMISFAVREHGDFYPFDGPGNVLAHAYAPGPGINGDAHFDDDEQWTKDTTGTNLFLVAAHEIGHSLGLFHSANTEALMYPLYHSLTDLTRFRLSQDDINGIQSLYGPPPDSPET
# T3 sequence (P08254 100-272 limits assumed): as above
Compound,"IC50 [2, 9]","IC50 [3, 10]",also measured
"O=C(O)[C@H](Cc1ccccc1)NS(=O)(=O)c1ccc2oc3ccccc3c2c1 [Example 3, (L)-2-(Dibenzofuran-2-sulfonylamino)-3-phenyl-propionic acid]",900 nM,–,melting point: 196 to 198 °C
"O=C(O)CNS(=O)(=O)c1ccc2oc3ccccc3c2c1 [Example 6, (Dibenzofuran-2-sulfonylamino)-acetic acid]",730 nM,4800 nM,melting point: 208 to 210 °C
"O=C(O)[C@H](CSC(c1ccccc1)(c1ccccc1)c1ccccc1)NS(=O)(=O)c1ccc2oc3ccccc3c2c1 [Example 8, (L)-2-(Dibenzofuran-2-sulfonylamino)-3-tritylsulfanyl-propionic acid]",9400 nM,–,–
"O=C(O)[C@H](CS)NS(=O)(=O)c1ccc2oc3ccccc3c2c1 [Example 9, (L)-2-(Dibenzofuran-2-sulfonylamino)-3-mercapto-propionic acid]",4500 nM,–,–
"CCC(C)[C@H](NS(=O)(=O)c1ccc2oc3ccccc3c2c1)C(=O)NO (stereo partly shown) [Example 10, (L)-2-(Dibenzofuran-2-sulfonylamino)-3-methyl-pentanoic acid hydroxyamide]",35000 nM,–,–
"CC(C)[C@H](NS(=O)(=O)c1ccc2c(c1)oc1ccccc12)C(=O)O [Example 11, (L)-2-(dibenzofuran-3-sulfonylamino)-3-methyl-butyric acid]",4.5 nM,15 nM,IC50 [1]: 1800 nM; IC50 [7]: 5000 nM; IC50 [8]: 47 nM
"CC(C)[C@H](NS(=O)(=O)c1ccc2sc3ccccc3c2c1)C(=O)O [Example 14, (L)-2-(Dibenzothiophene-2-sulfonylamino)-3-methyl-butyric acid]",610 nM,690 nM,IC50 [7]: 27000 nM; IC50 [8]: 2600 nM

# Continued by falling IC50 [2, 9], values first:
"IC50 [2, 9]","IC50 [3, 10]",Compound,also measured
2300 nM,1500 nM,"CCC(C)[C@H](NS(=O)(=O)c1ccc2oc3ccccc3c2c1)C(=O)O (stereo partly shown) [Example 2, (L)-2-(Dibenzofuran-2-sulfonylamino)-3-methyl-pentanoic acid]",–
1700 nM,5400 nM,"C[C@H](NS(=O)(=O)c1ccc2oc3ccccc3c2c1)C(=O)O [Example 4, (L)-2-(Dibenzofuran-2-sulfonylamino)-propionic acid]",–
1200 nM,1000 nM,"O=C(O)C[C@H](NS(=O)(=O)c1ccc2oc3ccccc3c2c1)C(=O)O [Example 7, (L)-2-(Dibenzofuran-2-sulfonylamino)-succinic acid]",melting point: 165 to 168 °C
470 nM,750 nM,"CC(C)[C@H](NS(=O)(=O)c1ccc2oc3cc(Br)ccc3c2c1)C(=O)O [Example 16, (L)-2-(7-Bromo-dibenzofuran-2-sulfonylamino)-3-methyl-butyric acid]",–
360 nM,62 nM,"CC(C)[C@H](NS(=O)(=O)c1ccc2oc3cc(-c4ccccc4)ccc3c2c1)C(=O)O [Example 17, (L)-3-Methyl-2-(7-phenyl-dibenzofuran-2-sulfonylamino)-butyric acid]",IC50 [7]: 6000 nM; IC50 [8]: 690 nM
320 nM,–,"CC(C)C[C@H](NS(=O)(=O)c1ccc2oc3ccccc3c2c1)C(=O)O [Example 1, (L)-2-(Dibenzofuran-2-sulfonylamino)-4-methyl-pentanoic acid]",IC50 [1]: 66000 nM
84 nM,–,"CC(C)[C@H](NS(=O)(=O)c1ccc2oc3ccccc3c2c1)C(=O)O [Example 5, (L)-2-(Dibenzofuran-2-sulfonylamino)-3-methyl-butyric acid]","IC50 [1]: 19000 nM; IC50 ([2]; Table 2, read-out: GCD (IC50)): 84 nM; IC50 ([3]; Table 2, read-out: SCD (IC50)): 233 nM; IC50 [4]: 8900 nM; IC50 [5]: 580 nM; Bioassay Peak (inhibitor plasma level) ([6]; peak): 82 µM; concentration at 24 h ([6]; rat, plasma, oral, 24 hours postdose): 180 nM; melting point: 163 to 165 °C"
49 nM,185 nM,"CC(C)[C@H](NS(=O)(=O)c1ccc2c(c1)Cc1ccccc1-2)C(=O)O [Example 12, (L)-2-(9H-Fluorene-2-sulfonylamino)-3-methyl-butyric acid]",IC50 [1]: 32300 nM; IC50 [7]: 10800 nM; IC50 [8]: 340 nM
